Experimental data published in patent publication US5449752A, “Polypeptides with affinity to lipopolysaccharides and their uses” (Seikagaku Kogyo K.K., priority 1991, dated 1995).
Values after ≈ are worked out from the molar mass of the structure shown. Positions of bridges follow the written chain, without caps; N, C: chain ends. Residues, ends and D or L forms follow the SMILES beside them.

Legend:
HIV = assay: Antiviral activity against HIV in HIV-infected MT-4 cells (MTT method); type: cell-based, human immunodeficiency virus; conditions: for EC50 (concentration at which cell death due to HIV infection is 50% inhibited): HIV-infected MT-4 cells, MOI 0.001, 37° C., 5 days, MTT method
Protocol: The antiviral activity-against HIV of the polypeptide (1) synthesized in Example 1 as well as polypeptides (2), (3), (4), (7), (12), (13), (14), (20), (21) and (26) was tested and evaluated according to the following method.
(§1) HIV-infected MT-4 cells (2.5×10^4 cells/well, multiplicity of infection (MOI): 0.001) immediately after infection were added together with the test substance with various changes of the concentration to a 96-well microtitre plate. After incubation at 37° C. for 5 days in a CO2 incubator, the number of survivor cells was measured by the MTT method [Pauwels et al.; J. Virol. Methods, 20, 309-321 (1988)]. The antiviral activity is expressed as a concentration at which cell death due to HIV infection is 50% inhibited (EC50 : 50% effective concentration). On the other hand, in order to know the cytotoxicity of the test substance on the MT-4 cells, virus-noninfected cells are incubated, likewise as above, together with the test compound with various changes of the concentration. The cytotoxicity is expressed as 50% cytotoxic concentration […] due to the test substance. Further, the rough ratio of CC50 to EC50 (CC50 /EC50) is expressed as an effective ratio (SI=selectivity index).

MT-4 cells = assay: Cytotoxicity on virus-noninfected MT-4 cells (MTT method); type: cell-based; conditions: 37° C., 5 days
Protocol: as §1

Structure (SMILES) | EC50 (concentration at which cell death due to HIV infection is 50% inhibited) (HIV) | CC50 (50% cytotoxic concentration) (MT-4 cells) | SI (CC50 /EC50) (HIV; rough ratio of CC50 to EC50, MT-4 cells) | selectivity in killing HIV infected cells (in words) (HIV; MT-4 cells, Table III) | selectivity index higher than for any of the known high endotoxin affinity compounds (HIV; compared with Tachyplesins and Polyphemusins of Table III)
N=C(N)NCCC[C@H](NC(=O)[C@@H]1CSSC[C@H](NC(=O)[C@H](Cc2c[nH]c3ccccc23)NC(=O)[C@H](CCCNC(=N)N)NC(=O)[C@@H](N)CCCNC(=N)N)C(=O)N[C@@H](Cc2ccc(O)cc2)C(=O)N[C@@H](CCCNC(=N)N)C(=O)N[C@@H](CCCCN)C(=O)N[C@H]2CSSC[C@H](NC(=O)[C@H](Cc3ccccc3)NC(=O)CNC(=O)[C@H](CCCCN)NC(=O)[C@H](Cc3ccccc3)NC2=O)C(=O)N[C@@H](Cc2ccc(O)cc2)C(=O)N[C@@H](CCCNC(=N)N)C(=O)N[C@@H](CCCCN)C(=O)N1)C(N)=O [polypeptide (20), ArgArgTrpCysTyrArgLysCysPheLysGlyPheCysTyrArgLysCysArgNH2] (H-RRWCYRKCFKGFCYRKCR-NH2; disulfide 4-17, 8-13; N-terminus assumed) | 0.01 µg/mL (≈ 0.00407 µM) | 54 µg/mL (≈ 22 µM) |  |  | 
CC[C@H](C)[C@@H]1NC(=O)CNC(=O)[C@H](CCCNC(=N)N)NC(=O)[C@H](Cc2ccc(O)cc2)NC(=O)[C@@H]2CSSC[C@H](NC1=O)C(=O)N[C@@H](Cc1ccc(O)cc1)C(=O)N[C@@H](CCCNC(=N)N)C(=O)N[C@@H](CCCCN)C(=O)N[C@H](C(=O)N[C@@H](CCCNC(=N)N)C(N)=O)CSSC[C@H](NC(=O)[C@H](Cc1c[nH]c3ccccc13)NC(=O)[C@@H](N)CCCNC(=N)N)C(=O)N[C@@H](Cc1ccccc1)C(=O)N[C@@H](CCCNC(=N)N)C(=O)N[C@@H](C(C)C)C(=O)N2 [Tachyplesin II, ArgTrpCysPheArgValCysTyrArgGlyIleCysTyrArgLysCysArg NH2, reference compound] (H-RWCFRVCYRGICYRKCR-NH2; disulfide 3-16, 7-12) |  | 36 µg/mL (≈ 15.9 µM) | 6 |  | 
N=C(N)NCCC[C@H](NC(=O)[C@@H]1CSSC[C@H](NC(=O)[C@H](Cc2c[nH]c3ccccc23)NC(=O)[C@@H](N)CCCNC(=N)N)C(=O)N[C@@H](Cc2ccc(O)cc2)C(=O)N[C@@H](CCCNC(=N)N)C(=O)N[C@@H](CCCCN)C(=O)N[C@H]2CSSC[C@H](NC(=O)[C@H](Cc3ccccc3)NC(=O)CNC(=O)[C@H](CCCCN)NC(=O)[C@H](Cc3ccc(O)cc3)NC2=O)C(=O)N[C@@H](Cc2ccc(O)cc2)C(=O)N[C@@H](CCCNC(=N)N)C(=O)N[C@@H](CCCCN)C(=O)N1)C(N)=O [polypeptide (3), ArgTrpCysTyrArgLysCysTyrLysGlyPheCysTyrArgLysCysArgNH2] (H-RWCYRKCYKGFCYRKCR-NH2; disulfide 3-16, 7-12; N-terminus assumed) | 0.07 µg/mL (≈ 0.0302 µM) | 50 µg/mL (≈ 21.6 µM) |  | particularly selective | at least 7 fold
